{
  "source": "patent US20040063681A1",
  "about": "“Methods for using gold (III) complexes as anti-tumor and anti-HIV agents” (priority 2002, published 2004)",
  "key": {"[1]": {"system": "Human Oral Epidermoid Carcinoma (multi-drug resistance, KB-V-1)", "test": "MTT cytotoxicity, KB-V-1", "type": "cell-based", "conditions": "MTT, growth inhibition, multi-drug resistant", "description": "Human promyelocytic leukemia (HL-60), human hepatocellular carcinoma (HepG2), Human cervix epitheloid carcinoma cells (HeLa) and human oral epidermoid carcinoma cells (KB-3-1), were obtained from American Type Culture Collection (ATCC) (Rockville, Md.). The multi-drug-resistant variant KB-V1 cell line was obtained by stepwise selections for vinblastine resistance as described by Shen et al., J. Biol. Chem. 261:7762-7770 (1986)], and was generously provided by Dr Michael Gottesman (NIH, Bethesda, Md.). Human nasopharyngeal carcinoma cells (SUNE1 and its cisplatin resistance variant, CNE1) were derived from poorly differentiated NPC in Chinese patients as described by Gu et al., Chin. J. Cancer 2:270-272 (1983), and were generously provided by Dr S. W. Tsao (The University of Hong Kong, Hong Kong, PRC). Cell culture flasks and 96 well microtitre plates were from Nalge Nunc hit. Culture medium, other medium constituents and phosphate buffered saline (PBS) were obtained from Gibco BRL (Rockville, Md.). Cell Proliferation Kit I (MTT) was purchased from Roche (Mannheim, Germany).\nThe anti-cancer activities of the gold(III) porphyrin complexes were evaluated toward some established human cancer cell lines: promyelocytic leukemia (HL-60), hepatocellular carcinoma (HepG2), cervix epitheloid carcinoma (HeLa), epidermoid carcinoma (KB-3-1) and its multi-drug resistant variant (KB-V1), nasopharyngeal carcinoma (SUNE1) and its cisplatin-resistant variant (CNE1)."}, "[2]": {"system": "calf thymus DNA", "test": "Viscosity evaluation of DNA", "conditions": "(η/ηo)^1/3 vs binding ratio r", "description": "Viscosity evaluation. The binding interaction of the gold(III) porphyrins can be further investigated by examining the change of DNA viscosity upon binding of the metalloporphyrin. If the metalloporphyrin binds to DNA by intercalation, this would cause chain elongation, unwinding and stiffening of the DNA helix as a consequence of untwisting of the base pairs and helical backbone needed to accommodate the intercalator.\nFor comparison, the viscosity profiles for ethidium bromide (intercalator) and Hoechst 33342 (minor groove binder) are also shown is FIG. 10."}, "[3]": {"system": "calf thymus DNA", "test": "UV-vis absorption titration with calf thymus DNA", "type": "binding", "description": "The calf thymus DNA was purchased from Sigma-Aldrich Chemical Co. and was purified by phenol-chloroform extraction. The DNA was dissolved in buffer (5 mM Tris, 5 mM NaCl, pH 7.2). The concentration (per base pair) of calf thymus DNA was determined spectrophotometrically on the basic of ε260, 13,200 M^−1cm^−1bp.\nAbsorption Titration. The binding interaction of the gold(III) porphyrins to duplex DNA has been studied by UV-vis spectroscopy.\nwhere [ctDNA] is the concentration of DNA, Δεap═|εA−εB| in which εA=Aobs/[complex], and Δε=|εB−εF|. εB and εF correspond to the extinction coefficient of DNA-bound gold(III) porphyrin and the free gold(III) porphyrins, respectively.\nThe effect of temperature on the intrinsic binding constants was investigated. Using the van't Hoff equation (2): […]"}, "[4]": {"system": "HeLa cells", "test": "Flow cytometry annexin V/propidium iodide apoptosis assay", "type": "cell-based, human", "description": "Flow cytometry: The gold(III) porphyrin-induced apoptosis of the HeLa cell line has been further examined by flow cytometry. During the early phase of apoptosis, cells lose the asymmetry of their membrane phospholipids, although the integrity of the cell membrane is maintained. A negatively charged phospholipid, named phosphatidylserine (PS), which is located in the inner part of the plasma membrane, becomes exposed to the cell surface. A phospholipid-binding protein, annexin V (green emissive upon binding), with high affinity binds preferentially to PS. Apoptotic cells therefore can be stained by annexin V before the dying cell changes its morphology and hydrolyzes its DNA. On the other hand, both DNA and the PS would be exposed for necrotic cells. In this case, propidium iodide (PI, red emissive upon binding), can be used to stain selectively the naked DNA. Therefore, both apoptotic and necrotic cells can be discriminated after adding these two staining reagents. For apoptotic cells, only annexin V would stain; for necrotic cells, both annexin V and PI would stain.\nFor comparison, a control cell culture experiment was performed in the absence of Complex 1a and straurosporine. […] Throughout the flow cytometric experiment, <1% of necrotic cells were observed."}, "[5]": {"system": "human lung fibroblast cells (CCD-19Lu)", "conditions": "MTT", "description": "Acute cytotoxicities of the gold(III) complexes to normal cells were evaluated using human lung fibroblast cells (CCD-19Lu) as model cell line. The percentages of cell survival at various doses of the gold complexes were determined by the MTT assay, and the toxicities profiles are shown in FIG. 15."}, "[6]": {"test": "Control UV-vis titration with sodium dodecyl sulfate instead of DNA", "type": "binding", "conditions": "sodium dodecyl sulfate (0-5 μM) instead of DNA", "description": "See Neidle, S. DNA structure and recognition; Oxford University Press: Oxford, 1994; 74-79."}, "[7]": {"test": "UV-vis stability study in buffer solution with and without glutathione", "type": "physicochemical", "conditions": "room temperature", "description": "UV-vis experiments. For UV-vis analysis, the absorption spectra of 2.5 μM (7 nmoles) of all studied complexes in (1:19) MeCN/Tris buffer solution was monitored over 72 h. […] The gold(III) solution was monitored over 48 h at room temperature and less than 10% decrease in the Soret band intensity was observed without any significant spectral shift in both the Soret and Q-bands.\nYet, no significant spectral shift and formation of new absorption bands were observed.\nThis finding confirms the excellent solution stability of 1j and 1k in physiologically related medium.\nThe precipitates are soluble in common organic solvent such as THF, CHCl3 and DMSO but insoluble in aqueous solution."}},
  "data": [
    {"molecule": "C1=Cc2nc1c(-c1ccccc1)c1ccc([n-]1)c(-c1ccccc1)c1nc(c(-c3ccccc3)c3ccc([n-]3)c2-c2ccccc2)C=C1.[Au+3].[Cl-]", "note": "[Complex 1a]", "values": [
      {"measurement": "IC50", "setting": "[1]", "value": 120, "unit": "nM"},
      {"measurement": "change in viscosity of the DNA", "setting": "[2]", "value": "no appreciable change in viscosity of the DNA"},
      {"measurement": "hypochromicity", "setting": "[3]; Tris buffer, 292.8 K", "value": 53.4, "unit": "%"},
      {"measurement": "hypochromicity", "setting": "[3]; Tris buffer, 298.0 K", "value": 50.3, "unit": "%"},
      {"measurement": "intrinsic binding constant (Kb)", "setting": "[3]; Tris buffer, 298.0 K", "value": "2.14 × 10^6 dm^3mol^−1"},
      {"measurement": "hypochromicity", "setting": "[3]; Tris buffer, 302.3 K", "value": 49.5, "unit": "%"},
      {"measurement": "intrinsic binding constant (Kb)", "setting": "[3]; Tris buffer, 302.3 K", "value": "1.98 × 10^6 dm^3mol^−1"},
      {"measurement": "hypochromicity", "setting": "[3]; Tris buffer, 307.2 K", "value": 47.1, "unit": "%"},
      {"measurement": "intrinsic binding constant (Kb)", "setting": "[3]; Tris buffer, 307.2 K", "value": "1.55 × 10^6 dm^3mol^−1"},
      {"measurement": "hypochromicity", "setting": "[3]; Tris buffer, 311.6 K", "value": 46.3, "unit": "%"},
      {"measurement": "intrinsic binding constant (Kb)", "setting": "[3]; Tris buffer, 311.6 K", "value": "1.35 × 10^6 dm^3mol^−1"},
      {"measurement": "hypochromicity", "setting": "[3]; Tris buffer, 316.5 K", "value": 43.4, "unit": "%"},
      {"measurement": "intrinsic binding constant (Kb)", "setting": "[3]; Tris buffer, 316.5 K", "value": "0.94 × 10^6 dm^3mol^−1"},
      {"measurement": "hypochromicity", "setting": "[3]; Tris buffer, 321.9 K", "value": 42.5, "unit": "%"},
      {"measurement": "intrinsic binding constant (Kb)", "setting": "[3]; Tris buffer, 321.9 K", "value": "0.82 × 10^6 dm^3mol^−1"},
      {"measurement": "ΔG° (298 K)", "setting": "[3]; binding to calf thymus DNA, van't Hoff analysis, 298 K", "value": "−8.7 ± 0.4"},
      {"measurement": "hypochromicity of the Soret band", "setting": "[3]; calf thymus DNA (0-5 μM), Tris buffer", "value": 44, "unit": "%"},
      {"measurement": "hypochromicity of the Q-band at 520 nm", "setting": "[3]; calf thymus DNA (0-5 μM), Tris buffer, 2% DMSO", "value": 40, "unit": "%"},
      {"measurement": "cells that underwent apoptosis", "setting": "[4]; 6 h of incubation", "value": 24, "unit": "%"},
      {"measurement": "cells died via apoptosis", "setting": "[4]; 15 h of incubation", "value": 57, "unit": "%"},
      {"measurement": "annexin V emission", "setting": "[4]; after treatment (Complex 1a 6 and 15 h; straurosporine 15 h)", "value": "the magnitude of the annexin V emission was enhanced"},
      {"measurement": "necrotic cells", "setting": "[4]; throughout the flow cytometric experiment", "value": "< 1", "unit": "%"},
      {"measurement": "cell death", "setting": "[5]; CCD-19Lu, 2 μM", "value": 90, "unit": "%"},
      {"measurement": "IC50", "setting": "[5]; read-out: IC50 CCD-19Lu, mean ± SE of at least three determinations", "value": "910 ± 210", "unit": "nM"},
      {"measurement": "hypochromicity of the Soret band", "setting": "[6]", "value": 48, "unit": "%"},
      {"measurement": "decrease in the Soret band intensity", "setting": "[7]; 2.5 μM in Tris buffer/MeCN (19:1), 48 h", "value": "less than 10%"},
      {"measurement": "decrease of the Soret band intensity", "setting": "[7]; glutathione 2 mM in Tris buffer/MeCN=19:1, 48 h", "value": "about 27%"}
    ]}
  ]
}
